Measurements taken from PMC5942373 (Beilstein Journal of Organic Chemistry, 2018).
“Also recorded” adds a separate entry of the source. Read-outs that look alike come from different tables or passages of the source. Blank lines part the entries; values can stand above or below the compound they belong to. Positions of bridges follow the written chain, without caps; N, C: chain ends. Residues, ends and D or L forms follow the SMILES beside them. Chains are numbered I, II in the order given. *: point of attachment. Daunorubicin(13-NOCH2CO) = COc1cccc2c1C(=O)c1c(O)c3c(c(O)c1C2=O)C[C@@](O)(C(C)=NOCC(=O)*)C[C@@H]3O[C@H]1C[C@H](N)[C@H](O)[C@H](C)O1

Tests used:
[1] = test system: CD13+ HT-1080 human fibrosarcoma cells; assay: In vitro cytostatic/cytotoxic effect, PrestoBlue viability; format: cell-based
Description: (§1) Similarly to our previous study the antitumor effects of conjugates were examined in vitro on CD13+ HT-1080 human fibrosarcoma and on CD13− HT-29 human colon adenocarcinoma cells. Both cell types are integrin receptor positive. The effect of the new drug conjugates was compared with the toxicity of free Dau and our lead compound Dau=Aoa-GFLGK(c[KNGRE]-GG)-NH2 (K). The bioconjugates enter cancer cells most likely by receptor-mediated endocytosis (at least at lower micromolar concentration) followed by the release of the active metabolite Dau=Aoa-Gly-OH by lysosomal degradation. In contrast, free Dau enters the cells in an unspecific manner which might explain the lower antitumor effect of conjugates in comparison with the free drug. In this experiment we measured the cytostatic effect (6 h treatment and further 66 h incubation after washing out the compounds) and the cytotoxic effect (72 h treatment). The results are summarized in (Table 3). […] It seems that the replacement of Lys by the hydrophilic amino acid Ser is not favorite. However, the incorporation of hydrophobic amino acids was well accepted. The conjugate with bulky side chain in this position (Leu) had higher IC50 values that might be explained by sterical hindrance. […] The Nle containing conjugate presented similar activity on HT-1080 and higher activity on HT-29 cells compared to the control conjugate. It is worth mentioning that Nle has a linear hydrocarbon side chain with the same length as Lys, the amino functional group missing. To further characterize the biological activity of the conjugates, their lysosomal degradation and cellular uptake were studied.
(§2) HT-1080 was maintained in DMEM while HT-29 cells in RPMI (Sigma-Aldrich), respectively, supplemented with 10% FBS, 5 mmol/L glutamine, and 50 units/mL penicillin and streptomycin (Life Technologies). As described in [17] cells were seeded in 5000 cells/well density in 100 μL medium followed by an overnight incubation. The next day 100 μL of serially diluted drugs were added to the cells. For the measurements of cytostatic effect, drug containing medium was gently removed from the plates after 6 h incubation, fresh medium was added to each wells, and the plates were further incubated for additional 66 h (72 h in total). In the case of cytotoxicity measurements, the drug containing medium was on the cells for the full period of the 72 h assay. At 72 h, supernatant was removed from the cells, and viability was assessed by the PrestoBlue® reagent (Life Technologies), which was diluted in PBS to reach the concentration given in the manufacturer’s instruction.

[2] = test system: CD13- HT-29 human colon adenocarcinoma cells; assay: as above; format: cell-based
Description: as §1, §2

HT-29 cells = assay: Cellular uptake by flow cytometry; format: cell-based, human; details: 10 μM, 6 h, 37 °C; for Cellular uptake in HT-29 compared with HT-1080 cells: flow cytometry, comparison of the two cell lines; for Cellular uptake by HT-29 cells: FBS containing medium, flow cytometry (Dau fluorescence)
Description: (§3) Daunomycin is fluorescent therefore the cellular uptake of Dau containing conjugates can be followed by flow cytometry (Figure 2). The new conjugates were taken up by HT-29 cells in a higher amount than by HT-1080 cells. […] The low cytostatic/cytotoxic effects of conjugate 5 can be explained by the results of cellular uptake study.
(§4) Figure 2 (A) HT1080 and (B) HT-29 cells. Uptake of conjugate 1 (light green); 2 (red); 3 (light blue); 4 (pink); 5 (green); K (yellow). Empty control with purple color.
(§5) Analogous to the description in [17], prior to the treatment, HT-1080 and HT-29 cells were incubated overnight in cell culture medium (see above) followed by seeding at a 250.000 cells/well density. Peptide–drug conjugates were dissolved in FBS containing cell culture medium and added to the cells at 10 μM final concentration. After 6 h incubation at 37 °C the supernatant was removed, cells were washed with PBS and trypsinised with 0.1% trypsin (Gibco® by Life Technologies) for 10 minutes. Trypsinization was terminated with FBS containing medium, then cells were washed and suspended in serum free medium. For live/dead detection we used Zombie Violet reagent (Biolegend, San Diego CA). Samples were detected and analyzed by using an Attitude® Acoustic Focusing Cytometer (ThermoFischer Scientific).

[3] = Chemostability (Asn deamidation) of cyclic NGR peptide-daunomycin conjugates in complete cell culture medium; format: physicochemical; details: DMEM CM (10% FBS complete medium), 2% DMSO, 1 mg/mL, 37 °C, HPLC-MS, area under the curve
Description: The chemostability of cyclic NGR peptide–drug conjugates was studied under the treatment conditions used for the in vitro cytotoxicity experiments. Samples were taken at 0 min, 6 h and 72 h. The deamidation rate was evaluated by HPLC–MS. […] After 6 h, moderate rearrangement was observed which increased in time. However, 54–58% of the parent cyclic NGR conjugates were still intact after 72 h. […] Except deamidation no other decomposition could be observed during this study.
As described in [17] to check the chemical stability each of the drug conjugates were dissolved in DMSO (2% of the final volume), following the addition of 10% FBS (fetal bovine serum) containing complete cell culture medium (DMEM CM) up to the 1 mg/mL final concentration. Each conjugate was allowed to incubate at 37 °C. Samples were analyzed at experiment time of 0 h, 6 h and 72 h, respectively, and components were purified with Amicon Ultra Centrifugal Filters (cut off 10K Millipore). The membranes were washed with eluent A (HPLC), followed by 3 × 15 min centrifugation at 13000 rpm. The last step is the washing with eluent B (HPLC) 1 × 15 min, followed by lyophilization and concentration of the samples.

HT-1080 cells = assay: Cellular uptake by flow cytometry; format: cell-based, human; details: 10 μM, 6 h, 37 °C, FBS containing medium; flow cytometry (Dau fluorescence)
Description: as §3, §4, §5

[4] = Rat liver lysosomal homogenate; details: 37 °C, up to 72 h
[5] = 10% FBS (fetal bovine serum) containing complete cell culture medium (DMEM CM); details: 37 °C, up to 72 h

Compound: COc1cccc2c1C(=O)c1c(O)c3c(c(O)c1C2=O)C[C@@](O)(C(C)=O)C[C@@H]3O[C@H]1C[C@H](N)[C@H](O)[C@H](C)O1 [Daunomycin]
IC50 ([1]; HT-1080, 72 h, read-out: HT-1080 (72 h) IC50): 500 ± 200 nM
IC50 ([1]; HT-1080, read-out: HT-1080 (6 h) IC50): 1400 ± 600 nM
IC50 ([2]; HT-29, 72 h, read-out: HT-29 (72 h) IC50): 100 ± 100 nM
IC50 ([2]; HT-29, read-out: HT-29 (6 h) IC50): 300 ± 200 nM

Compound: COc1cccc2c1C(=O)c1c(O)c3c(c(O)c1C2=O)C[C@@](O)(C(C)=NOCC(=O)NCC(=O)N[C@@H](Cc1ccccc1)C(=O)N[C@@H](CC(C)C)C(=O)NCC(=O)N[C@@H](CCCCNC(=O)CNC(=O)CNC(=O)[C@@H]1CCC(=O)N[C@@H](CC(C)C)C(=O)N[C@@H](CC(N)=O)C(=O)NCC(=O)N[C@@H](CCCNC(=N)N)C(=O)N1)C(N)=O)C[C@@H]3O[C@H]1C[C@H](N)[C@H](O)[C@H](C)O1 [compound 2, Dau=Aoa-GFLGK(c[CONH-LNGRE]-GG)-NH2]
Cellular uptake in HT-29 compared with HT-1080 cells (HT-29 cells): significantly higher accumulation in HT-29 than in HT-1080 cells

Compound: COc1cccc2c1C(=O)c1c(O)c3c(c(O)c1C2=O)C[C@@](O)(C(C)=NOCC(=O)NCC(=O)N[C@@H](Cc1ccccc1)C(=O)N[C@@H](CC(C)C)C(=O)NCC(=O)N[C@@H](CCCCNC(=O)CNC(=O)CNC(=O)[C@@H]1CCC(=O)N2CCC[C@H]2C(=O)N[C@@H](CC(N)=O)C(=O)NCC(=O)N[C@@H](CCCNC(=N)N)C(=O)N1)C(N)=O)C[C@@H]3O[C@H]1C[C@H](N)[C@H](O)[C@H](C)O1 [compound 4, Dau=Aoa-GFLGK(c[CONH-PNGRE]-GG)-NH2] (I: PNGREGG / II: {Daunorubicin(13-NOCH2CO)}-GFLGK-NH2; amide I:C-II:5; lactam I:N-I:5)
Ratio of Asn-/Asp-/isoAsp-derivatives: DGR ([3]; 6 h): 14%
Ratio of Asn-/Asp-/isoAsp-derivatives: isoDGR ([3]; 6 h): 13%
Ratio of Asn-/Asp-/isoAsp-derivatives: NGR ([3]; 6 h, % printed in b14 only): 73%
Ratio of Asn-/Asp-/isoAsp-derivatives: DGR ([3]; 72 h): 46%
Ratio of Asn-/Asp-/isoAsp-derivatives: NGR ([3]; 72 h): 19%
Ratio of Asn-/Asp-/isoAsp-derivatives: isoDGR ([3]; 72 h): 35%
Cellular uptake by HT-1080 cells (HT-1080 cells): highest uptake
Cellular uptake by HT-29 cells (HT-29 cells): highest uptake
Cellular uptake in HT-29 compared with HT-1080 cells (HT-29 cells): significantly higher accumulation in HT-29 than in HT-1080 cells

Compound: COc1cccc2c1C(=O)c1c(O)c3c(c(O)c1C2=O)C[C@@](O)(C(C)=NOCC(=O)NCC(=O)N[C@@H](Cc1ccccc1)C(=O)N[C@@H](CC(C)C)C(=O)NCC(=O)N[C@@H](CCCCNC(=O)CNC(=O)CNC(=O)[C@@H]1CCC(=O)N[C@@H](CO)C(=O)N[C@@H](CC(N)=O)C(=O)NCC(=O)N[C@@H](CCCNC(=N)N)C(=O)N1)C(N)=O)C[C@@H]3O[C@H]1C[C@H](N)[C@H](O)[C@H](C)O1 [compound 5, Dau=Aoa-GFLGK(c[CONH-SNGRE]-GG)-NH2]
Cellular uptake by HT-1080 cells (HT-1080 cells): did not enter
Cellular uptake by HT-29 cells (HT-29 cells): slightly higher cellular uptake

More lines, now with the values ahead:

cleaved bond [4]: Gly-Phe, major, 6 h
fragment found [5]: isoDGR, 6 h; also recorded: DGR, 72 h
Compound: Dau=Aoa-GFLGK(c[CONH-ANGRE]-GG)-NH2

not cleaved [5]: 100% NGR form at 72 h
Compound: Dau=Aoa-GFLGK(c[CONH-KNGRE]-GG)-NH2

cleaved bond [4]: Gly-Phe, major, 6 h
fragment found [5]: isoDGR, 6 h; also recorded: DGR, 72 h
Compound: Dau=Aoa-GFLGK(c[CONH-LNGRE]-GG)-NH2

cleaved bond [4]: Gly-Phe, major, 6 h
fragment found [5]: isoDGR, 6 h; also recorded: DGR, 6 h
Compound: Dau=Aoa-GFLGK(c[CONH-NleNGRE]-GG)-NH2

cleaved bond [4]: Gly-Phe, major, 6 h
fragment found [5]: isoDGR, 6 h; also recorded: DGR, 6 h
Compound: Dau=Aoa-GFLGK(c[CONH-PNGRE]-GG)-NH2

cleaved bond [4]: Gly-Phe, major, 6 h
fragment found [5]: DGR, 72 h; also recorded: isoDGR, 6 h
Compound: Dau=Aoa-GFLGK(c[CONH-SNGRE]-GG)-NH2
